Laboratory results: US5080906A, “Method and composition for oral administration of N-acetylcysteine” (Zambon Group, S.p.A., priority 1989, dated 1992)
Counter-ions that a name gives are not always drawn. Like-named read-outs stand apart in the source and are kept apart here.

How the values were obtained:
[1] = Plasma level of unmodified NAC after oral administration of NAC solutions to rats (GC-MS); assay type: in vivo, Sprague Dawley rats; settings: rat, 300 mg/kg NAC (100 μCi/kg 3H-NAC), 0-8 h, * p < 0.005 (Student's t) for NAC-THAM 1:1, read-out: AUC0-8 h, plasma NAC (total unmodified NAC)
Description: Sprague Dawley rats after overnight fast were divided into 7 groups of 33 animals each. These seven groups of animals were treated with different NAC solutions by oral route according to the following scheme: […] Blood samples were withdrawn just before the treatment and 15, 20, 45, 60, 90, 120, 240, 360, 480 and 1,440 minutes after treatment, via a heparinized syringe. The blood was immediately transferred into plastic tubes containing sodium dithionite (1 mg/5 μl) and 0.02N sodium EDTA (200 μl ). The plasma was separated by centrifugation at 5,000×g at 4° C. for 20 minutes and the samples thus obtained were stored at -20° C. until the analysis. […] The samples were kept at 37° C. for one hour and then an acetone:formic acid=4:1 (1 ml) mixture was added. The proteins were separated at 20,000×g for 20 minutes by centrifugation. To the supernatant 2M HCl (200 μl) was added and then the NAC was extracted twice with ethyl acetate (6 ml). […] At the end of the reaction, excess isopropanol was eliminated and the samples were reacted with 3:1 ethyl acetate:pentafluoropropionic anhydride (200 μl) at 60° C. for 30 minutes. […] In Table 1 the plasma concentrations of NAC, expressed as AUC0-8h, the total NAC detected expressed as g/l, are reported for each group of animals and treatment regimen.

[2] = Total radioactivity in plasma after oral 3H-NAC in rats; assay type: in vivo, Sprague Dawley rats; settings: rat, 300 mg/kg NAC (100 μCi/kg 3H-NAC), 0-24 h
Description: Sprague Dawley rats after overnight fast were divided into 7 groups of 33 animals each. These seven groups of animals were treated with different NAC solutions by oral route according to the following scheme:
Group 1-NAC (300 mg/kg) dissolved in water (10 ml/kg)
Group 5-NAC (300 mg/kg) and THAM (222.7 mg/kg) dissolved in water (10 ml/kg); molar ratio 1:1
For each group of animals the NAC dose (300 mg/kg) contained ^3 H-NAC in an amount yielding 100 μCi/kg. Blood samples were withdrawn just before the treatment and 15, 20, 45, 60, 90, 120, 240, 360, 480 and 1,440 minutes after treatment, via a heparinized syringe. The blood was immediately transferred into plastic tubes containing sodium dithionite (1 mg/5 μl) and 0.02N sodium EDTA (200 μl ). The plasma was separated by centrifugation at 5,000×g at 4° C. for 20 minutes and the samples thus obtained were stored at -20° C. until the analysis.
Samples of plasma (50 μl) were added to Lumagel (10 ml), were stirred and were then allowed to stand in the scintillation counter (Beckman LS 8100) at 15° C. for 4 hours. Radioactivity was measured after the stabilization time.
The total radioactivity in plasma after administration of 300 mg/kg of NAC (containing 100 μCi/kg of ^3 H-NAC) (group 1) and after administration of the same amount of NAC with THAM in the ratio 1:1 (group 5) are reported in Table 2.

in vivo = assay: in vivo; parameters: species or system Male Beagle dogs; settings: dog, po, 50 mg/kg
Description: (§1) Male Beagle dogs were fasted overnight and were divided into 4 groups of 4 animals each. The four groups were treated orally with different NAC solutions according to the following scheme: […] For each group of animals the dose of NAC ([…]) contained an amount of ^14 C-NAC equal to 20 μCi/kg. Blood samples were withdrawn by a heparinized syringe just before the treatment and 10, 20, 30, 45, 60, 120, 240, 360, 480 and 1,440 minutes after treatment. The blood samples were treated and stored according to the same procedure described in Example 1.

[3] = parameters: species or system Male Beagle dogs; settings: dog, in vivo, po, 50 mg/kg
Description: as §1

[4] = result in words; cited from earlier work
[5] = THAM salt; result in words; cited from earlier work

SMILES | AUC(0-t) at 8 h [1] [ng·h/mL] | AUC0-24 h, total radioactivity in plasma [2] [mgh/l] | AUC(0-inf) (in vivo; AUC0-.infin., plasma NAC (unmodified)) [ng·h/mL] | AUC0-24 h, total radioactivity in plasma [3] [mghl^-1] | solubility [4] | AUC0-.infin., plasma NAC (unmodified) (in vivo) [mgh/l] | amount of unmodified NAC in plasma compared with NAC alone (in vivo) | total amount of absorbed NAC compared with NAC as such [3] | bioavailability [5]
CC(=O)N[C@@H](CS)C(=O)O [NAC, N-acetylcysteine] | 105000 ± 3000 | 4048.3 ± 105.9 | 57500 ± 7290 | 1864.13 ± 856.57 | soluble |  |  |  | 
CC(=O)N[C@@H](CS)C(=O)O [NAC-lysinate, NAC lysinate] |  |  |  | 1247.23 ± 185.18 |  | 73.37 ± 10.33 | do not provide plasma levels meaningfully different from those of NAC itself | not different | 
C[C@@H]1O[C@@H]1P(=O)(O)O [THAM salt of the antibiotic Fosfomycin] |  |  |  |  |  |  |  |  | better bioavailability
